The values that follow come from the NIST ThermoML archive (doi:10.1016/j.jct.2015.09.006).

Numbers after ± are expanded uncertainties.

The data set can be described thus: wn = mass fraction of the nth substance listed. As to conditions: 323.15 K, 101.3 kPa, Liquid, Vibrating tube method.

In the case of `[Ca+2].[Cl-].[Cl-]` [calcium chloride] + O, the mass density (w1 = 0.566) is recorded as 1575.9 ± 24 kg/m3.
Consider `O=[PH2][O-].O=[PH2][O-].[Ca+2]` [calcium hypophosphite] + O, for which, for the setting “w1 = 0.1326”, the mass density stood at 1073.2 ± 24 kg/m3.
Regarding `O=[PH2][O-].[Na+]` [sodium phosphinate] + O, the mass density (w1 = 0.5786) is on record as 1415.2 ± 24 kg/m3.

For orientation: mass density means the mass of a sample divided by its volume.
